From patent US20120003270A1, “6-SUBSTITUTED ISOFLAVONOID COMPOUNDS AND USES THEREOF” (priority 2008, published 2012)

Columns and labels:
TXA2 = TXA2 synthesis in RA-stimulated U937 cells; format: cell-based, human; settings: A23187 0.5 μM, 30 min
Experimental: (§1) U937 cells were thawed and resuspended in RPMI and 10% FCS at 2×10^5 cells per ml. The cells were incubated in 5% CO2 at 37° C. and expanded in growing culture to at least 6.4×10^7 total cells. The cells were then resuspended in fresh medium and cultured with 5 μM retinoic acid (RA) at 2×10^5 cells per ml for a further 3 days (72 h). RA treated cells were washed 2× in serum-free RPMI and resuspended in serum-free medium at 5×10^6 cells per ml. The cells were aliquotted into Teflon tubes at 1 ml per tube. Working stock solutions of compounds (1) and (3) were prepared at 0.1 mM, 1 mM and 10 mM as described above. For each working dilution, 10 μl was added to 1 ml cells to achieve a final concentration of 0 (DMSO alone), 1, 10, and 100 μM for each test compound. Cells were incubated in triplicate with each concentration of test compound for 15 min at 37° C. After 15 min pre-incubation, each 1 ml tube of cells received 5 μl of a […] solution of the calcium ionophore A23187 (to achieve 0.5 μM A23187). Incubation at 37° C. was continued for a further 30 min. After incubation, supernatants were collected by centrifugation at 2000 rpm for 10 min and stored at −20° C. until required for assay.

NFκB = NFκB promoter activity in transfected THP-1 cells (beta-lactamase reporter); format: cell-based, human; settings: for Inflammatory index: TNFα 7.5 ng/ml, 5 h
Experimental: The assay utilizes a genetically modified THP-1 cell line and GeneBLAzer® beta-lactamase technology (Invitrogen Corp). The human THP-1 monocyte/macrophages contain a stably-transfected beta-lactamase reporter gene under control of the NFkB response element. They respond to stimulation with TNFα, which leads to activation of the NFkB signaling pathway. Co-incubation of cells with TNFα and test material allows quantitative determination of the ability of test material to inhibit TNFα-stimulated beta-lactamase production. An inflammatory index was calculated as the ratio of beta-lactamase product to beta-lactamase substrate.
In brief, genetically modified THP-1 cells were seeded into wells of a 96-well plate (50×10^3 cells/well) in the presence of RPMI 1640 medium (70 μl). TNFα was added to each well (10 μl) to give a final concentration of 7.5 ng/ml. Dialyzed bovine serum was added (10 μl). Test compounds were dissolved in DMSO (10 μL) (5 wells). Each plate contained a no-cell control (4 wells), a no-serum control (4 wells) and two serum controls. Plates were incubated for 5 h at 37° C. to allow for NFkB-stimulated beta-lactamase production. LiveBLAzer™ FRET B/G Substrate (CCF4-AM) substrate was then added to the assay. CCF4-AM is a Förster resonance energy transfer (FRET) based substrate for beta-lactamase developed by Invitrogen Corp. Once CCFA-AM enters a cell, it is converted to negatively charged CCF4 by endogenous esterases. Excitation of this substrate at 409 nm leads to efficient FRET between the coumarin and fluorescein moieties, resulting in a green fluorescence detectable at 530 nm. The presence of beta-lactamase leads to cleavage of CCF4 and results in a loss of FRET, resulting in a robust blue fluorescent signal detectable at 460 nm. Thus, activity of beta-lactamase (a marker of NFkB-promoter activity) is measured as a product to substrate ratio (blue/green fluorescence ratio: 460 nm/530 nm).

[1] = Pharmacokinetics after a single oral dose in mice; format: in vivo, mouse; settings: serum; for half-life / AUC: mouse; for half-life: oral, 25 mg/kg, unconjugated, one phase exponential decay, read-out: t1/2 (free); for AUC: oral 25 mg/kg in PEG 400/PBS 1:1; for AUCfree/AUCtotal / [max]free (μM, mean ± SD): oral 25 mg/kg
Experimental: The pharmacokinetic (PK) profiles of compounds (1) and (3) were examined following oral administration in PEG 400/PBS 1:1 at a dose of 25 mg/kg. For each experiment, three animals were allocated per time point (15 min, 30 min, 60 min, 90 min, 4 hr and 24 hr). Mice were killed using cervical dislocation and serum collected via cardiac puncture. Faeces and urine, where available, were also collected. Samples were stored at −80° C. and analysed by LC-MS in-house. The limit of detection was 20 ng/ml.
In Table 23 (and Table 24), “AUC” represents the area under the serum concentration versus time curve, expressed as μM*hour/L. This number assesses absorption and clearance in a relative way. The higher the number, the more compound has been absorbed and the longer it has remained in circulation. “AUCfree” refers to the area under the curve for unconjugated or free analogue, whereas “AUCtotal” refers to the area under the curve for the free and conjugated analogue combined.
“[max]” refers to the maximum concentration observed in serum. These measurements also give some understanding of how well a compound is absorbed.
The ratio of the AUCfree to the AUCtotal gives a relative measure of how much of the administered compound i.e. ‘free’ remains either in circulation compared to how much of the compound is conjugated.
“t1/2” is the half life, i.e. the time taken for the serum concentration to fall by half. The elimination of a drug is usually an exponential (logarithmic) process, so that a constant proportion is eliminated per unit time. […] The first refers to the t1/2 of the unconjugated analogue and the second the t1/2 of the total (free plus conjugated) analogue.

PGE2 = PGE2 synthesis in RA-stimulated U937 cells; format: cell-based, human; settings: A23187 0.5 μM, 30 min
Experimental: as §1

HCAECs = test: HCAEC cell viability; format: cell-based, human; settings: 10 μM, 24 hr incubation
[2] = Pharmacokinetics after a single oral dose in mice; format: in vivo, mouse; settings: urine, oral 25 mg/kg; for AUC: mouse
rabbit kidney (RK-13) = test: Toxicity in normal cells (MTT), RK-13; format: cell-based; settings: Oryctolagus cuniculus, RK-13, 120 h, 5 days, top concentration 150 μM, read-out: Normal cell viability IC50
Experimental: Human neonatal fibroblast foreskin (NFF—a gift from Dr. Peter Parsons, Queensland Institute of Medical Research) or rabbit kidney (RK-13—a gift from Prof. Miller Whalley, Macquarie University) cells were seeded into 96 well plates and cultured in RPMI supplemented with 10% FCS (CSL, Australia), penicillin (100 U/ml), streptomycin ([…]), L-glutamine (2 mM) and sodium bicarbonate (1.2 g/L) at 37° C. and 5% CO2 for 24 hours until cells had attached and entered log phase of growth. Test compounds were added in serial two-fold dilutions from 150 μM in triplicate and incubated for a further 5 days. MTT was then added to each well, incubated for 3 hours at 37° C., after which the medium was tipped off. Following the addition of DMSO, the absorbance for each well was read on a plate reader. The assays were repeated at least twice.

| Compound | TXB2 (TXA2; 1 μM) | TXB2 (TXA2; 10 μM) | TXB2 (TXA2; 100 μM) | Inflammatory index (NFκB; 10 μM, vehicle 8.92 ± 0.22) | Inflammatory index (NFκB; 30 μM, vehicle 11.56 ± 0.49) | Inflammatory index (NFκB; 100 μM, vehicle 9.48 ± 0.14) | half-life [1] | AUC [1] | AUCfree/AUCtotal [1] | [max]free (μM, mean ± SD) [1] | PGE2 (PGE2; 1 μM) | PGE2 (PGE2; 10 μM) | PGE2 (PGE2; 100 μM) | Cell viability (HCAECs) | AUC [2] | [max]free (μM, mean ± SD) [2] | IC50 (rabbit kidney (RK-13)) | Effect on promoter activity of NFκB (in words) (NFκB; THP-1 cells, TNFα-stimulated) |
| --- | --- | --- | --- | --- | --- | --- | --- | --- | --- | --- | --- | --- | --- | --- | --- | --- | --- | --- |
| O=C(O)C1CCCN1Cc1cc2c(cc1O)OCC(c1ccc(O)cc1)=C2 (centres unmarked) [Compound (3)] | 18.434 ± 0.367 pg | 26.276 ± 9.76 pg | 12.668 ± 3.506 pg | 8.88 ± 0.05 | 11.45 ± 0.86 | 8.59 ± 0.24 | 28 min | 0.108 µM·h | 12% | 0.03 ± 0.01 µM | 1.025 ± 0.114 pg | 1.271 ± 0.212 pg | 1.39 ± 0.227 pg | cell viability was unaffected | 34 µM·h | 3.9 ± 2.4 µM | > 150 µM |  |
| CN(C)Cc1cc2c(cc1O)OCC(c1ccc(O)cc1)=C2 [Compound (1)] | 35.833 ± 1.866 pg | 41.697 ± 2.275 pg | 21.708 ± 5.439 pg | 9.12 ± 0.26 | 10.05 ± 0.36 | 2.75 ± 0.11 | 9 min | 0.127 µM·h | 33% | 0.13 ± 0.1 µM | 1.485 ± 0.175 pg | 1.58 ± 0.145 pg | 0.881 ± 0.116 pg | cell viability was unaffected | 9.3 µM·h | 5.6 ± 6.7 µM | > 150 µM | significantly reduced the promoter activity of NFκB at 10 μM and 100 μM |
